In patent EP1921115B1, “Use of 3-hydroxy-cyclohex-2-enone azo based dyes in optical layers” (Clariant Finance (BVI) Limited, priority 2006, dated 2008):

What was measured:
Type in all cases: physicochemical
[1] = UV-vis spectra (λ max and ε); details: dissolved in CH2Cl2, DMSO or in tfp
Method: For UV-vis spectra, λ max and ε values of a compound are determined by using an UV-vis spectrophotometer, the compound was dissolved in CH2Cl2, DMSO or in tfp. The values are obtained by balancing the measurements performed on compound solutions at three different concentrations.

[2] = Thermal decomposition: decomposition point (DP); details: sealed aluminum pan, 25 to 400°C, heating rate 10°C/min, nitrogen flow, single measurement
Method: For the determination of DP and HR, the compound is incorporated into a sealed aluminum pan. Analysis conditions are as following: Temperature range from 25 to 400°C, heating rate 10°C/min, nitrogen flow of 50 ml/min. Values are determined by single measurement.

[3] = Solubility in 2,2,3,3 tetrafluoropropanol; details: in 2,2,3,3 tetrafluoropropanol at 25 °C
From the text: The solubilities were differentiated into three groups: A Good solubility (> 20 g / L) B Medium solubility (>= 10 and <= 20 g / L) C Poor solubility (<10 g / L)

ε (at λ max) ([1]; Table A, azo ligands) [L/g/cm] | λ max [1] [nm] | DP [2] [°C] | Solubility [3] | ε (at λ max) ([1]; Table B, metal complexes) [L/g/cm] | SMILES
63 | 427 | 282 | A (Good solubility (> 20 g / L)) |  | CCOC(=O)C1C(O)=C(N=Nc2ccc(C)cc2[N+](=O)[O-])C(=O)CC1(C)C (centres unmarked) [compound of formula (1)]
52 | 411 | 253 | A (Good solubility (> 20 g / L)) |  | CCOC(=O)C1C(O)=C(N=Nc2cc([N+](=O)[O-])ccc2O)C(=O)CC1(C)C (centres unmarked) [compound of formula (2)]
52 | 421 | 274 | A (Good solubility (> 20 g / L)) |  | CCOC(=O)C1C(O)=C(N=Nc2ccc(Cl)cc2[N+](=O)[O-])C(=O)CC1(C)C (centres unmarked) [compound of formula (3)]
19 | 384 | 200 | A (Good solubility (> 20 g / L)) |  | CCOC(=O)C1C(O)=C(N=Nc2ccc(S(C)(=O)=O)cc2[N+](=O)[O-])C(=O)CC1(C)C (centres unmarked) [compound of formula (5)]
32 | 399 | 276 | A (Good solubility (> 20 g / L)) |  | CCOC(=O)C1C(O)=C(N=Nc2ccc(C(F)(F)F)cc2[N+](=O)[O-])C(=O)CC1(C)C (centres unmarked) [compound of formula (7)]
72 | 400 | 285 | A (Good solubility (> 20 g / L)) |  | CCOC(=O)C1C(O)=C(N=Nc2ccc([N+](=O)[O-])cc2Br)C(=O)CC1(C)C (centres unmarked) [compound of formula (9)]
55 | 413 | 248 | A (Good solubility (> 20 g / L)) |  | CCOC(=O)C1C(O)=C(N=Nc2c(C)cc(C)cc2C)C(=O)CC1(C)C (centres unmarked) [compound of formula (10)]
44 | 432 | 288 | A (Good solubility (> 20 g / L)) |  | CCOC(=O)C1C(O)=C(N=Nc2ccc([N+](=O)[O-])cc2OC)C(=O)CC1(C)C (centres unmarked) [compound of formula (11)]
25 | 438 | 279 | A (Good solubility (> 20 g / L)) |  | CCOC(=O)C1C(O)=C(N=Nc2cc(OC)c(S(N)(=O)=O)cc2OC)C(=O)CC1(C)C (centres unmarked) [compound of formula (12)]
52 | 442 | 270 | C (Poor solubility (<10 g / L)) |  | Cc1ccc(N=NC2=C(O)C(C#N)C(C)(C)CC2=O)c([N+](=O)[O-])c1 (centres unmarked) [compound of formula (13)]
42 | 437 | 222 | A (Good solubility (> 20 g / L)) |  | CC1(C)CC(=O)C(N=Nc2ccc(Cl)cc2[N+](=O)[O-])=C(O)C1C#N (centres unmarked) [compound of formula (14)]
50 | 458 | 154 | C (Poor solubility (<10 g / L)) |  | COc1ccc(N=NC2=C(O)C(C#N)C(C)(C)CC2=O)c([N+](=O)[O-])c1 (centres unmarked) [compound of formula (15)]
17 | 423 | 249 | C (Poor solubility (<10 g / L)) |  | CC1(C)CC(=O)C(N=Nc2cc([N+](=O)[O-])ccc2O)=C(O)C1C#N (centres unmarked) [compound of formula (16)]
29 | 326 | 157 | A (Good solubility (> 20 g / L)) |  | CCOC(=O)C1C(O)=C(N=Nc2c(F)c(F)c(F)c(F)c2F)C(=O)CC1(C)C (centres unmarked) [compound of formula (17)]
 | 431 | 276 | C (Poor solubility (<10 g / L)) | 50 | CCOC(=O)C1C([O][Cu][O]C2=C(N=Nc3ccc([N+](=O)[O-])cc3OC)C(=O)CC(C)(C)C2C(=O)OCC)=C(N=Nc2ccc([N+](=O)[O-])cc2OC)C(=O)CC1(C)C (centres unmarked) [compound of formula (18)]
 | 442 | 278 | A (Good solubility (> 20 g / L)) | 67 | CCOC(=O)C1C([O][Ni][O]C2=C(N=Nc3ccc([N+](=O)[O-])cc3OC)C(=O)CC(C)(C)C2C(=O)OCC)=C(N=Nc2ccc([N+](=O)[O-])cc2OC)C(=O)CC1(C)C (centres unmarked) [compound of formula (19)]

SMILES | ε (at λ max) ([1]; Table A, azo ligands) [L/g/cm] | λ max [1] [nm] | DP [2] [°C] | Solubility [3] | ε (at λ max) ([1]; Table B, metal complexes) [L/g/cm]
CCOC(=O)C1C(O)=C(N=Nc2ccccc2[N+](=O)[O-])C(=O)CC1(C)C (centres unmarked) [compound of formula (4)] | 52 | 424 | 238 | B (Medium solubility (>= 10 and <= 20 g / L)) | 
CCOC(=O)C1C(O)=C(N=Nc2ccc(OC)cc2[N+](=O)[O-])C(=O)CC1(C)C (centres unmarked) [compound of formula (6)] | 56 | 448 | 273 | B (Medium solubility (>= 10 and <= 20 g / L)) | 
CCOC(=O)C1C(O)=C(N=Nc2c(Br)cc([N+](=O)[O-])cc2C#N)C(=O)CC1(C)C (centres unmarked) [compound of formula (8)] | 55 | 396 | 226 | B (Medium solubility (>= 10 and <= 20 g / L)) | 
CCOC(=O)C1C([O][Cu][O]C2=C(N=Nc3cc(OC)c(S(N)(=O)=O)cc3OC)C(=O)CC(C)(C)C2C(=O)OCC)=C(N=Nc2cc(OC)c(S(N)(=O)=O)cc2OC)C(=O)CC1(C)C (centres unmarked) [compound of formula (20)] |  | 441 | 314 | B (Medium solubility (>= 10 and <= 20 g / L)) | 42
